Laboratory results published in patent US20260166046A1, “Inhibitors of methionine aminopeptidase-2 and methods of preparation and uses thereof” (Primetime Life Sciences LLC, priority 2022, published 2026).

Key:
[1] = in vivo; cited from earlier work
E. histolytica HM1: IMSS = assay: Trophozoite viability IC50 determination, Amebae assay (ATPLite); assay type: cell-based; details: Entamoeba histolytica, 72 h, read-out: Cell viability values Mean IC50 (nM) E. histolytica HM1: IMSS
Protocol: (§1) Giardia cultures: Trophozoites of G. lamblia isolates WB and GS were grown anaerobically in borosilicate glass screw-cap culture tubes (Fisher Scientific) at pH 7.0 in modified TYI-S-33 medium. The medium was supplemented with 10% heat-inactivated bovine serum (Sigma-Aldrich) and 0.05% bovine bile (Sigma-Aldrich). To attain low-oxygen-tension conditions, the tubes were filled to 85 to 90% of their total volume capacity and incubated without shaking at 37° C. Subcultures (2×10^5 trophozoites per tube) were made three times a week. Detachment of trophozoites for inoculation was achieved by chilling the cultures on ice for 20 min. Culturing and detachment of Metronidazole-resistant G. lamblia Assemblage A 713M3 and assemblage B 1279-M1 trophozoites followed the same protocol, except that the growth medium was supplemented with metronidazole gradually increasing the concentration to 10 μM. Amebae cultures: E. histolytica strain HM1:IMSS trophozoites were grown at 37° C. in TYI-S-33 medium supplemented with penicillin (100 U/mL) and streptomycin sulfate (100 μg/mL). Trophozoites were grown anaerobically in borosilicate tubes and subcultures were made 1-2 times a week. Trophozoites were detached for inoculation by chilling the cultures on ice for 20 minutes.
(§2) Trophozoite viability IC50determination
(§3) Giardia assays: 10 μL giardia trophozoites in growth medium were plated at a density of 10,000 cells/well in sterile 96-well black clear bottom assay plates. Fumagillin and fumagillol derivatives were 1:3 serially diluted from a 1 μM DMSO stock solution and then 100 μL/well were transferred in duplicate to the assay wells. Metronidazole (control) was 1:3 serially diluted in growth medium from a 100 μM stock solution in DMSO. The assay plates were placed in a BD GasPak™ EZ Container System (BD Diagnostics) to create an anaerobic growth environment. The sealed containers were incubated at 37° C. for 72 hr. Following incubation, 70 μL/well of the ATPLite reagent (PerkinElmer) was added to the assay plates for one-step lysis and ATP level detection. The luminescent signals of the assay plates were measured on an EnSpire 2300 plate reader (PerkinElmer). Concentration response titration points for each compound were fitted to a 4-parameters logistic nonlinear regression model using KaleidaGraph, yielding the IC50value and standard error (SE).
Amebae assays: The protocol is identical to that described above except that the trophozoites were plated at a density of 5000 cells/well because of their larger size.

Recombinant human MetAP2 = biological target: T1, Recombinant human MetAP2 (Homo sapiens, UniProt P50579); assay: MetAP2 fluorescence assay; assay type: biochemical; details: recombinant human MetAP2, H-Met-Gly-Pro-AMC substrate
T1 construct: purchased Bio-Techne/R&D systems
T1 sequence (P50579 whole entry): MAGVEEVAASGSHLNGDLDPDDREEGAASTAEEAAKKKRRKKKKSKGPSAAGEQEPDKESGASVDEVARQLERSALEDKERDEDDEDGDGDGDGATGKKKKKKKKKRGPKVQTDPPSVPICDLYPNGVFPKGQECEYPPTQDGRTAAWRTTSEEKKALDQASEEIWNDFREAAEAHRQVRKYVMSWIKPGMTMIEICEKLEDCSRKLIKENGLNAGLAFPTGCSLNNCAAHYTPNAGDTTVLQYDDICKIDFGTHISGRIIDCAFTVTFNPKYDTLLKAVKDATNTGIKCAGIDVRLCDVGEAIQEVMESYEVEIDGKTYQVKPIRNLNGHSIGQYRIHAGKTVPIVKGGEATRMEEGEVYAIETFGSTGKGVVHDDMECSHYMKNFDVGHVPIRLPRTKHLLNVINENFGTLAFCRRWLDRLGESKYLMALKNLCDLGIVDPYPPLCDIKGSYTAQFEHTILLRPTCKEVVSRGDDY
Protocol: MetAP2 Fluorescence Assay
Recombinant human MetAP2 (Bio-Techne/R&D systems) was diluted to 10 μg/mL in the assay buffer (50 mM HEPES, 0.1 mM CoCl2, 100 mM NaCl, pH 7.5). The substrate, H-Met-Gly-Pro-AMC (Bio-Techne/R&D systems), was diluted to 500 μM with 2 μg/mL of the coupling enzyme, recombinant human dipeptidyl peptidase-4 (Bio-Techne/R&D systems), in assay buffer. 50 μL of 10 μg/mL recombinant human METAP2 were loaded into a flat-bottom black 96-well plate (Greiner Bio), and the reaction was initiated by adding 50 μL of the substrate/dipeptidyl peptidase-4 mixture. The reaction mixture was incubated at room temperature for 10 minutes, and the fluorescence was measured for 5 minutes at excitation and emission wavelengths of 380 nm and 460 nm, respectively, in kinetic mode. For IC50determination, 0.5 μL inhibitor solution was added to the reaction mixture. The reaction rates were used to calculate IC50with KaleidaGraph.

G. lamblia WB = assay: Trophozoite viability IC50 determination, Giardia assay (ATPLite); assay type: cell-based; details: Giardia duodenalis, 72 h, read-out: Cell viability values Mean IC50 (nM) G. lamblia WB
Protocol: as §1, §2, §3

G. lamblia GS = assay: as above; assay type: cell-based; details: Giardia duodenalis, 72 h, read-out: Cell viability values Mean IC50 (nM) G. lamblia GS
Protocol: as §1, §2, §3

SMILES	body weight loss [1] [%]	immune-compromised patients with reversible toxic effect on bone marrow (primarily Thrombocytopenia) [1] [%]	spontaneous platelet count recovery after halting therapy [1]	IC50 (E. histolytica HM1: IMSS) [nM]	IC50 (Recombinant human MetAP2) [nM]	IC50 (G. lamblia WB) [nM]	IC50 (G. lamblia GS) [nM]
CO[C@@H]1[C@H](OC(=O)/C=C/C=C/C=C/C=C/C(=O)O)CC[C@]2(CO2)[C@H]1[C@@]1(C)O[C@@H]1CC=C(C)C [Fumagillin]	> 15	33	1-2 weeks				
CO[C@@H]1[C@H](OC(=O)Nc2ccc(B(O)O)c(F)c2)CC[C@]2(CO2)[C@H]1[C@@]1(C)O[C@@H]1CC=C(C)C [No 65]				> 1000	< 10	101 to 1000	< 10
CO[C@@H]1[C@H](OC(=O)N[C@@H](CC(C)C)B(O)O)CC[C@]2(CO2)[C@H]1[C@@]1(C)O[C@@H]1CC=C(C)C [No 67]				101 to 1000	< 10	101 to 1000	10.1 to 100
CO[C@@H]1[C@H](OC(=O)N[C@H](CC(C)C)B(O)O)CC[C@]2(CO2)[C@H]1[C@@]1(C)O[C@@H]1CC=C(C)C [No 68]				> 1000	< 10	> 1000	101 to 1000
CO[C@@H]1[C@H](OC(=O)N[C@@H](C)B(O)O)CC[C@]2(CO2)[C@H]1[C@@]1(C)O[C@@H]1CC=C(C)C [No 69]				> 1000	< 10	> 1000	10.1 to 100
CO[C@@H]1[C@H](OC(=O)N[C@H](C)B(O)O)CC[C@]2(CO2)[C@H]1[C@@]1(C)O[C@@H]1CC=C(C)C [No 70]				> 1000	< 10	101 to 1000	10.1 to 100
